Measurements taken from US9956157B2, “Composition containing fucosterol for skin whitening or moisturizing” (INDUSTRY-ACADEMIC COOPERATION FOUNDATION, YONSEI UNIVERSITY, priority 2014, dated 2018).

What was measured:
Type in all cases: cell-based
B16F10 melanoma cells = assay: Microscopic observation of melanin generation in α-MSH-stimulated B16F10 melanoma cells; details: 200 nM α-MSH, fucosterol 5 and 20 μM, 72 hrs, FIG. 3
Experimental: B16F10 melanoma cells were incubated in a DMEM medium including 10% fetal bovine serum and then added in a 6-well plate with 2.5×10^5 cell/mL (the final volume of 3 mL). After being incubated for 24 hrs, the medium was removed and fucosterol which was dissolved in the DMEM medium including 200 nM α-MSH was treated at 5 and 20 μM of concentrations, respectively. After 72 hrs, the incubated medium was removed from the 6-well plate and the B16F10 melanoma cells were photographed by using a microscope (Olympus IX71 Model), and the result was illustrated in FIG. 3.

[1] = tested on: MITF (microphthalmia transcription factor); assay: MITF mRNA expression (RT-PCR) in B16F10 melanoma cells; details: 200 nM α-MSH, fucosterol 5 and 20 μM, 24 hrs, FIG. 7
Experimental: B16F10 melanoma cells were incubated in a DMEM medium including 10% fetal bovine serum and then added in a 6-well plate with 2.5×10^5 cell/mL (the final volume of 3 mL). After being incubated for 24 hrs, the medium was removed and fucosterol which was dissolved in the DMEM medium including 200 nM α-MSH was treated at 5 and 20 μM of concentrations, respectively. After 24 hrs, the total RNA was isolated by using a TRIzol reagent (Invitrogen, Carlsbad, Calif., USA). The isolated total RNAs were quantified by using a nano-drop (ND-1000). The quantified RNA was synthesized to cDNA by using reverse transcriptase and a PCR machine (Applied biosystems, Foster city, CA, USA) and then the PCR was performed with specific primers below.
As the PCR result, the amplified cDNA was isolated with a 1.5% agarose gel by electrophoresis and cDNA bands were verified by using a G:BOX EF imaging system (Syngene, Cambridge, UK), and the result was illustrated in FIG. 7.

[2] = tested on: HaCaT human keratinocytes; assay: Cornified envelope formation in HaCaT human keratinocytes (absorbance 340 nm); details: HaCaT cells, fucosterol 5, 10, 20 μM, 96 hrs, p<0.05, FIG. 8
Experimental: HaCaT human keratinocytes were incubated in a Dulbecco's Modified Eagle's Media (DMEM) medium including 10% fetal bovine serum and then put in a 6-well plate with 2×10^5 cell/ml (the final volume of 3 ml). After being incubated for 24 hrs, the medium was removed and fucosterol which was dissolved in the DMEM medium was treated at 5, 10, and 20 μM concentrations, respectively. After incubation for 96 hrs, the incubated medium was removed from the 6-well plate to collect a cell pellet, and the cell pellet was transferred to a 1.5 mL tube and centrifuged for 10 min at 10,000 rpm to remove a supernatant. The obtained pellet was added with a Tris buffer solution including 2% sodium dodecyl sulfate (SDS) and 20 mM dithiothreitol (DTT) and boiled, and the absorbance was measured at 340 nm to evaluate the effect on cornified envelope formation. According to Equation 1 below, the formation degree of the cornified envelope compared with the control group was calculated and the result was illustrated in FIG. 8. Cornified envelope formation amount (%) compared with control group=absorbance of each test material/absorbance of control group×100 […]

transglutaminase = assay: Transglutaminase mRNA expression (RT-PCR) in HaCaT human keratinocytes; details: HaCaT cells, fucosterol 5, 10, 20 μM, 24 hrs, FIG. 9
Experimental: HaCaT human keratinocytes were incubated in a Dulbecco's Modified Eagle's Media (DMEM) medium including 10% fetal bovine serum and then put in a 6-well plate with 2×10^5 cell/ml (the final volume of 3 ml). After being incubated for 24 hrs, the medium was removed and fucosterol which was dissolved in the DMEM medium was treated at 5, 10, and 20 μM concentrations, respectively. After 24 hrs, the total RNA was collected by using a TRIzol reagent (Invitrogen, Carlsbad, Calif., USA) and reverse-transcribed and then a reverse transcription-polymerase chain reaction (RT-PCR) analysis was performed below. First, for cDNA synthesis, the RNA was reverse-transcribed by reverse transcriptase. The RT-PCR was performed by specific primers below and the result was illustrated in FIG. 9.

loricrin = assay: Loricrin protein expression (western blot) in HaCaT human keratinocytes; details: HaCaT cells, fucosterol 5, 10, 20 μM, 24 hrs, FIG. 10
Experimental: (§1) HaCaT human keratinocytes were incubated in a Dulbecco's Modified Eagle's Media (DMEM) medium including 10% fetal bovine serum and then put in a 6-well plate with 2×10^5 cell/ml (the final volume of 3 ml). After being incubated for 24 hrs, the medium was removed and fucosterol which was dissolved in the DMEM medium was treated at 5, 10, and 20 μM concentrations, respectively. After 24 hrs, the HaCaT human keratinocytes were lysed with a NP40 buffer solution including proteinase inhibitor cocktail. The protein amount extracted from the HaCaT human keratinocytes was quantified by using a Bradford method. The sample was boiled for 5 min and then the same amount of protein ([…]) was isolated by electrophoresis with 10% SDS-PAGE. The isolated proteins after electrophoresis were transferred to a nitrocellular membrane and western blot was performed. A primary antibody was reacted and the nitrocellular membrane was washed three times by using Tris-buffer saline tween20 (TBST) for 10 min. In this case, the kind and the dilution of the primary antibody used in the present invention is 1:1000. In a secondary antibody reaction, a secondary antibody was put in the membrane performing the primary antibody reaction and reacted for 2 hrs at room temperature. In this case, a dilution of the secondary antibody was 1:5000. […]

filaggrin = assay: Filaggrin protein expression (western blot) in HaCaT human keratinocytes; details: HaCaT cells, fucosterol 5, 10, 20 μM, 24 hrs, FIG. 12
Experimental: as §1

caspase 14 = assay: Caspase 14 protein expression (western blot) in HaCaT human keratinocytes; details: HaCaT cells, fucosterol 5, 10, 20 μM, 24 hrs, FIG. 12
Experimental: as §1

C/C=C(\CC[C@@H](C)[C@H]1CC[C@H]2[C@@H]3CC=C4C[C@@H](O)CC[C@]4(C)[C@H]3CC[C@]12C)C(C)C [fucosterol] was tested, and the “melanin generation, microscopic observation” value (B16F10 melanoma cells) was “largely inhibited”, the “mRNA amount of MITF” value [1] was “reduced” and the cornified envelope formation [2] was “excellent cornified envelope formation effect”. The “mRNA expression of transglutaminase” value (transglutaminase) was “increased”, the “protein expression of loricrin” value (loricrin) was “increased” and the “protein expression of filaggrin” value (filaggrin) was “increased”. The “protein expression of caspase 14” value (caspase 14) was “increased”.
